These results are taken from patent US20250115597A1, “TYK2 INHIBITORS AND COMPOSITIONS AND METHODS THEREOF” (LYNK PHARMACEUTICALS CO. LTD., priority 2021, published 2025).

SMILES strings stand for the structures. Where two headings read alike, the source gives them in different places.

In data set [1] the target is T1, Ba/F3-FL-TYK2-P760L cells (Homo sapiens, UniProt P29597, P760L, cells depend on it).
T1 construct: BaF3-FL-T2P760L (nM)
Put plainly: Anti-proliferative assay, Ba/F3-FL-TYK2-P760L cells (Cell-Titer Glo). The class given is cell-based. The settings on record: 72 h, read-out: BaF3-FL-T2P760L IC50. In short, it runs like this:
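Ba/F3 cells made IL-3-independent by TEL-fused or full-length mutant JAK-family kinases, seeded at 2000/well and dosed after 24 h with 9 three-fold dilutions topping at 20 μM. Viability after 72 h at 37 °C, 5% CO2 by Cell-Titer Glo ATP luminescence.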

A short description of data set [2]: Microsomal metabolic stability assay. The class given is in vitro ADME. Particulars: pH 7.4, 0.5 mg/mL protein, 1 μM compound. As to the method:
Microsomal Metabolic Stability Assay
Microsomes were pre-incubated with test compound or control compounds for 5 min at 37° C. in 100 mM potassium phosphate buffer, pH 7.4, 1.0 mM EDTA. The reaction was initiated by addition of 15 μL of the NADPH regenerating system to 30 μL of each incubation mixture per time point. The final incubation condition was composed of 0.5 mg/mL microsomal protein, 1 μM test article/positive control, 2 mM NADPH. The 0-minute samples were prepared by addition of a 30 μL aliquot of each incubation mixture to 135 μL quench reagent to precipitate proteins. And then a 15 μL aliquot of the NADPH regenerating system was added. At 5, 15, 30 and 45 minutes, the reaction will be stopped by the addition of cold acetonitrile solution containing internal standard. The samples taken at all time points were centrifuged at 5000×g for 15 minutes. 50 μL of supernatant are taken into 96-well assay plates pre-added with 50 μL ultrapure water, and then analyzed by LC/MS/MS.
Concentrations of test articles, control compounds in the samples were determined by using LC/MS/MS method. Plotting of the chromatograms and peak area integrations are carried out by Analyst (AB Sciex).
n the determination of the in vitro elimination constant (ke) of the control compounds, the analyte/internal standard peak area ratios will be converted to percentage remaining (% Remaining) with the following equation: […]
The slope was measured by the natural logarithm of the percentage of the residual compound and time, T1/2 was calculated according to the following formula.

Where [3] appears, read: dog liver microsomes, read-out: Dog LM Clint.
[4] abbreviates: dog liver microsomes, read-out: Dog LM T½.
Where [5] appears, read: human liver microsomes, read-out: Human LM Clint.
Where [6] appears, read: human liver microsomes, read-out: Human LM T½.
[7] abbreviates: rat liver microsomes, read-out: Rat LM Clint.
The mark [8] stands for this setting: rat liver microsomes, read-out: Rat LM T½.

T1 sequence (P29597 whole entry P760L): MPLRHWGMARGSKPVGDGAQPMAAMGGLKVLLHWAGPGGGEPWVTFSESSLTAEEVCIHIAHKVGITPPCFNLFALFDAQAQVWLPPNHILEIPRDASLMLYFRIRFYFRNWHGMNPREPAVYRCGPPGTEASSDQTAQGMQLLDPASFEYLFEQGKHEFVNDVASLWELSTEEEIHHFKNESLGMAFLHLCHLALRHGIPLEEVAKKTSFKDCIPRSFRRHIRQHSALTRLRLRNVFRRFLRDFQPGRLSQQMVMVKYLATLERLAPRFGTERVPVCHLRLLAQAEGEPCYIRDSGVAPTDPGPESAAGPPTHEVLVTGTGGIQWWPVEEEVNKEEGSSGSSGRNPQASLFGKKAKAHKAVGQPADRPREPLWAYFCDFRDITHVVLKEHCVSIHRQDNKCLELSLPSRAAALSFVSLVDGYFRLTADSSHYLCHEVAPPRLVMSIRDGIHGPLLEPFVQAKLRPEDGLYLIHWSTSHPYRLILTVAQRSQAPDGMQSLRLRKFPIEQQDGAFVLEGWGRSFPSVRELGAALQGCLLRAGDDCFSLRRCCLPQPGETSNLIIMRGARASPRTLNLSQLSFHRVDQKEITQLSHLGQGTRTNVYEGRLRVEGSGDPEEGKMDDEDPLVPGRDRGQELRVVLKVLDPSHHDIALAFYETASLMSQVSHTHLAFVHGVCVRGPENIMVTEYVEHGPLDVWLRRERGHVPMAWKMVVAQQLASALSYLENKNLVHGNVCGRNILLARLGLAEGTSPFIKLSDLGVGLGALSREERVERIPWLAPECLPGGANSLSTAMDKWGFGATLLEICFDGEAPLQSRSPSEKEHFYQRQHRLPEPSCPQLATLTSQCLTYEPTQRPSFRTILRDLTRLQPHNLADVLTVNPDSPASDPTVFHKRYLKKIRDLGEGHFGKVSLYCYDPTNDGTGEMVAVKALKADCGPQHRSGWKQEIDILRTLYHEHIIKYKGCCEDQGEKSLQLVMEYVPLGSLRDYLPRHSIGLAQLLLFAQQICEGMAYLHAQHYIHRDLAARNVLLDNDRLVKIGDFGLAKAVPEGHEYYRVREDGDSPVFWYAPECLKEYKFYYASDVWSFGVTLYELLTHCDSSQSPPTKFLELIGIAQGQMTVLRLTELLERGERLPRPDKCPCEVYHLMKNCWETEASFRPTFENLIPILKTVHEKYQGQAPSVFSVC

On to `[2H]C([2H])([2H])NC(=O)c1nnc2cc1Nc1cc(cc(-c3ncn(C4CC4)n3)c1OC)COCc1nc(ccc1F)N2` [Example 82, 11-(1-Cyclopropyl-1H-1,2,4-triazol-3-yl)-18-fluoro-10-methoxy-N-(methyl-d3)-15-oxa-2,4,5,8,21-pentaazatetracyclo[15.3.1.1^{3,7}.1^{9,13}]tricosa-1(20),3,5,7(23),9(22),10,12,17(21),18-nonaene-6-carboxamide], for which the GI50 in data set [1] was 64.3 nM. In addition, the microsomal CLint at 1 μM is 17.8 µL/min/mg in data set [2] (setting [3]), under 11.5 µL/min/mg in data set [2] (setting [5]) and 20.1 µL/min/mg in data set [2] (setting [7]). Besides, the half-life at 1 μM is 1.3 h in data set [2] (setting [4]), over 2 h in data set [2] (setting [6]) and 1.15 h in data set [2] (setting [8]).
In the case of `[2H]C([2H])([2H])NC(=O)c1cnc(NC(=O)C2CC2)cc1Nc1cn(C)c2ncn(CC(F)(F)F)c(=O)c12` [Example 195, 6-(Cyclopropanecarboxamido)-N-(methyl-d3)-4-((7-methyl-4-oxo-3-(2,2,2-trifluoroethyl)-4,7-dihydro-3H-pyrrolo[2,3-d]pyrimidin-5-yl)amino)nicotinamide], in data set [1], the GI50 is 560 nM. For the same molecule, the results for the microsomal CLint at 1 μM in data set [2] (setting [5]) and in data set [2] (setting [7]) were 40 µL/min/mg and 8.8 µL/min/mg, respectively. The half-life at 1 μM in data set [2] (setting [6]) amounted to 0.578 h; in data set [2] (setting [8]) it was 2.62 h.
With `[2H]C([2H])([2H])NC(=O)c1cnc2nc1Nc1cc(cc(-c3ncn(C)n3)c1OC)COCc1cc(cc(F)c1F)N2` [Example 78, 18,19-Difluoro-10-methoxy-N-(methyl-d3)-11-(1-methyl-1H-1,2,4-triazol-3-yl)-15-oxa-2,4,8,23-tetraazatetracyclo[15.3.1.1^{3,7}.1^{9,13}]tricosa-1(20),3,5,7(23),9(22),10,12,17(21),18-nonaene-6-carboxamide], in data set [1], the GI50 worked out at 46.5 nM. Besides, the microsomal CLint at 1 μM amounted to 8.5 µL/min/mg in data set [2] (setting [3]), 22 µL/min/mg in data set [2] (setting [5]) and 21.4 µL/min/mg in data set [2] (setting [7]). In addition, the half-life at 1 μM in data set [2] (setting [4]) is 2.72 h; in data set [2] (setting [6]), 1.05 h; in data set [2] (setting [8]), 1.08 h.
`[2H]C([2H])([2H])NC(=O)c1cnc2nc1Nc1cc(cc(-c3ncn(C)n3)c1OC)COCc1cc(F)cc(c1)N2` [Example 79, 19-Fluoro-10-methoxy-N-(methyl-d3)-11-(1-methyl-1H-1,2,4-triazol-3-yl)-15-oxa-2,4,8,23-tetraazatetracyclo[15.3.1.1^{3,7}.1^{9,13}]tricosa-1(21),3,5,7(23),9(22),10,12,17,19-nonaene-6-carboxamide]: the GI50 in data set [1] was 40.3 nM. In addition, the microsomal CLint at 1 μM in data set [2] (setting [3]) is 8.97 µL/min/mg; in data set [2] (setting [5]), 27.8 µL/min/mg; in data set [2] (setting [7]), 26.2 µL/min/mg. Also, the half-life at 1 μM in data set [2] (setting [4]) was determined as 2.58 h; in data set [2] (setting [6]), 0.833 h; in data set [2] (setting [8]), 0.881 h.
In the case of `[2H]C([2H])([2H])NC(=O)c1cnc(NC(=O)C2CC2)cc1Nc1csc2cnn(CC(F)(F)F)c(=O)c12` [Example 189, 6-(Cyclopropanecarboxamido)-N-(methyl-d3)-4-((4-oxo-5-(2,2,2-trifluoroethyl)-4,5-dihydrothieno[2,3-d]pyridazin-3-yl)amino)nicotinamide], the GI50 in data set [1] was determined as 247 nM. Besides, the microsomal CLint at 1 μM was found to be 1.15 µL/min/mg in data set [2] (setting [3]), 6.2 µL/min/mg in data set [2] (setting [5]) and 26.1 µL/min/mg in data set [2] (setting [7]). The figures for the half-life at 1 μM in data set [2] (setting [4]), in data set [2] (setting [6]) and in data set [2] (setting [8]) were 20.1 h, 3.73 h and 0.884 h, respectively.
Consider `CNC(=O)c1cnc(NC(=O)C2CC2)cc1Nc1cn(C)c2ccn(C)c(=O)c12` [Example 12, 6-(Cyclopropanecarboxamido)-4-((1,5-dimethyl-4-oxo-4,5-dihydro-1H-pyrrolo[3,2-c]pyridin-3-yl)amino)-N-methylnicotinamide], for which, in data set [1], the GI50 was 416 nM. The microsomal CLint at 1 μM was 25.8 µL/min/mg in data set [2] (setting [5]) and 16.4 µL/min/mg in data set [2] (setting [7]). Besides, the half-life at 1 μM in data set [2] (setting [6]) was determined as 0.895 h; in data set [2] (setting [8]) it was 1.41 h.
For `[2H]C([2H])([2H])NC(=O)c1cnc(NC(=O)C2CC2)cc1Nc1csc2cnn(C(C)C)c(=O)c12` [Example 184, 6-(Cyclopropanecarboxamido)-4-((5-isopropyl-4-oxo-4,5-dihydrothieno[2,3-d]pyridazin-3-yl)amino)-N-(methyl-d3)nicotinamide], the GI50 in data set [1] turned out to be 189 nM. Further, the microsomal CLint at 1 μM in data set [2] (setting [3]) is under 11.5 µL/min/mg; in data set [2] (setting [5]), under 11.5 µL/min/mg; in data set [2] (setting [7]), 23.1 µL/min/mg. For the same molecule, the half-life at 1 μM in data set [2] (setting [4]) is over 2 h; in data set [2] (setting [6]) it was over 2 h; in data set [2] (setting [8]) it was 1 h.
For `[2H]C([2H])([2H])NC(=O)c1cnc2cc1Nc1cc(cc(-c3ncn(C)n3)c1OC)COCc1cc(F)cc(n1)N2` [Example 77, 19-Fluoro-10-methoxy-N-(methyl-d3)-11-(1-methyl-1H-1,2,4-triazol-3-yl)-15-oxa-2,4,8,21-tetraazatetracyclo[15.3.1.1^{3,7}.1^{9,13}]tricosa-1(21),3,5,7(23),9(22),10,12,17,19-nonaene-6-carboxamide], the GI50 in data set [1] was found to be 61.1 nM. Besides, the microsomal CLint at 1 μM in data set [2] (setting [3]) was found to be 15.4 µL/min/mg; in data set [2] (setting [5]) it was 4.59 µL/min/mg; in data set [2] (setting [7]), 12.2 µL/min/mg. For the same molecule, the results for the half-life at 1 μM in data set [2] (setting [4]), in data set [2] (setting [6]) and in data set [2] (setting [8]) were 1.5 h, 5.03 h and 1.9 h, respectively.
Turning to `CCn1ccc2c(c(Nc3cc(Nc4ncc(F)cc4F)ncc3C(=O)NC)cn2C)c1=O` [Example 98, 6-((3,5-Difluoropyridin-2-yl)amino)-4-((5-ethyl-1-methyl-4-oxo-4,5-dihydro-1H-pyrrolo[3,2-c]pyridin-3-yl)amino)-N-methylnicotinamide], the GI50 in data set [1] was 488 nM. The microsomal CLint at 1 μM in data set [2] (setting [3]) was found to be 37.3 µL/min/mg; in data set [2] (setting [5]), 32.6 µL/min/mg; in data set [2] (setting [7]), 114 µL/min/mg. For the same molecule, the half-life at 1 μM in data set [2] (setting [4]) stood at 0.62 h; in data set [2] (setting [6]), 0.709 h; in data set [2] (setting [8]) it was 0.202 h.
Consider `[2H]C([2H])([2H])NC(=O)c1cnc(Nc2cc(F)c(F)cn2)cc1Nc1cn(C)c2c(F)cn(C)c(=O)c12` [Example 121, 6-((4,5-Difluoropyridin-2-yl)amino)-4-((7-fluoro-1,5-dimethyl-4-oxo-4,5-dihydro-1H-pyrrolo[3,2-c]pyridin-3-yl)amino)-N-(methyl-d3)nicotinamide], for which the GI50 in data set [1] stood at 42.2 nM. Moreover, the results for the microsomal CLint at 1 μM in data set [2] (setting [3]), in data set [2] (setting [5]) and in data set [2] (setting [7]) were 19.9 µL/min/mg, 135 µL/min/mg and 115 µL/min/mg, respectively. For the same molecule, the figures for the half-life at 1 μM in data set [2] (setting [4]), in data set [2] (setting [6]) and in data set [2] (setting [8]) were 1.16 h, 0.171 h and 0.201 h, respectively.
In the case of `[2H]C([2H])([2H])NC(=O)c1cnc(NC(=O)C2CC2)cc1Nc1cn(C)c2c(F)cn(CC(F)(F)F)c(=O)c12` [Example 123, 6-(Cyclopropanecarboxamido)-4-((7-fluoro-1-methyl-4-oxo-5-(2,2,2-trifluoroethyl)-4,5-dihydro-1H-pyrrolo[3,2-c]pyridin-3-yl)amino)-N-(methyl-d3)nicotinamide], the GI50 in data set [1] turned out to be 100 nM. The microsomal CLint at 1 μM in data set [2] (setting [3]) came to 18.7 µL/min/mg; in data set [2] (setting [5]) it was 53 µL/min/mg; in data set [2] (setting [7]), 55.6 µL/min/mg. In addition, the half-life at 1 μM in data set [2] (setting [4]) stood at 1.41 h; in data set [2] (setting [6]), 0.437 h; in data set [2] (setting [8]), 0.417 h.
For `[2H]C([2H])([2H])NC(=O)c1cnc(NC(=O)C2CC2)cc1Nc1cn(C)c2cnn(C(C)C(F)(F)F)c(=O)c12` (centres unmarked) [Example 200, 6-(Cyclopropanecarboxamido)-N-(methyl-d3)-4-((1-methyl-4-oxo-5-(1,1,1-trifluoropropan-2-yl)-4,5-dihydro-1H-pyrrolo[2,3-d]pyridazin-3-yl)amino)nicotinamide], the GI50 in data set [1] was 648 nM. In addition, the microsomal CLint at 1 μM in data set [2] (setting [5]) was under 11.5 µL/min/mg. Also, the half-life at 1 μM in data set [2] (setting [6]) was over 2 h.
Regarding `[2H]C([2H])([2H])NC(=O)c1cnc(NC(=O)C2CC2)cc1Nc1cnn2ccn(CC(F)(F)F)c(=O)c12` [Example 45, 6-(Cyclopropanecarboxamido)-N-(methyl-d3)-4-((4-oxo-5-(2,2,2-trifluoroethyl)-4,5-dihydropyrazolo[1,5-a]pyrazin-3-yl)amino)nicotinamide], in data set [1], the GI50 was 160 nM. Further, the microsomal CLint at 1 μM in data set [2] (setting [3]) is 8.76 µL/min/mg; in data set [2] (setting [5]), 51.9 µL/min/mg; in data set [2] (setting [7]) it was 110 µL/min/mg. For the same molecule, the half-life at 1 μM amounted to 2.64 h in data set [2] (setting [4]), 0.445 h in data set [2] (setting [6]) and 0.21 h in data set [2] (setting [8]).
